Assay results: paper PMC11877520, “Anthelmintic Potential of Conjugated Long-Chain Fatty Acids Isolated from the Bioluminescent Mushroom Neonothopanus gardneri” (Journal of Natural Products, 2025)
“Also recorded” adds a separate entry of the source. Where two headings read alike, the source gives them in different places.

Tests used:
Schistosoma mansoni = test: In vitro antischistosomal assay on adult schistosomes (parasite viability by microscope); assay type: cell-based, Schistosoma mansoni (BH strain); settings: for EC50: Schistosoma mansoni
Protocol: The in vitro antischistosomal potential of compounds 1–5 was evaluated at various concentrations on S. mansoni (male and female) to determine their effective concentrations at 50% (EC50). Praziquantel (PZQ) was employed as a positive control, while vehicle-treated parasites (0.5% DMSO) were a negative control. […] The S. mansoni (BH strain) life cycle was sustained by passage through Biomphalaria glabrata snails and Swiss mice at the Research Center on Neglected Diseases (Guarulhos University, SP, Brazil). Vero cells from the American Type Culture Collection (ATCC) were cultured in Dulbecco’s modified Eagle medium (DMEM) supplemented with 10% heat-inactivated fetal calf serum and 2 mM L-glutamine (Vitrocell, Campinas, SP, Brazil). C. elegans (strain N2) was maintained at 22 °C on nematode growth medium (NGM) agar seeded with Escherichia coli strain OP50, following standard protocols.[26] The in vitro antischistosomal assay followed established procedures.[27] Adult schistosomes from infected mice were exposed to test samples (0.78–50 μM) in RPMI 1640 medium supplemented with 5% heat-inactivated fetal calf serum, penicillin (100 U/mL), and streptomycin (100 μg/mL) in a 24-well culture plate. Test samples, including PZQ, were dissolved in DMSO and tested in triplicate with experiments repeated three times. A BEL Engineering microscope assessed parasite viability at 24, 48, and 72 h. Statistical analysis was conducted using GraphPad Prism 8.0. CE50 and CC50 values were determined from sigmoid dose–response curves. Selectivity indices were calculated by dividing CC50 values obtained on Vero cells by […].[30]

Vero cells = test: Cytotoxicity on Vero cells (MTT); assay type: cell-based; settings: for SI (male worms), selectivity index SI = CC50/EC50: Vero CC50 / S. mansoni male EC50
Protocol: (§1) The S. mansoni (BH strain) life cycle was sustained by passage through Biomphalaria glabrata snails and Swiss mice at the Research Center on Neglected Diseases (Guarulhos University, SP, Brazil). Vero cells from the American Type Culture Collection (ATCC) were cultured in Dulbecco’s modified Eagle medium (DMEM) supplemented with 10% heat-inactivated fetal calf serum and 2 mM L-glutamine (Vitrocell, Campinas, SP, Brazil). C. elegans (strain N2) was maintained at 22 °C on nematode growth medium (NGM) agar seeded with Escherichia coli strain OP50, following standard protocols.[26]
(§2) Cytotoxicity was assessed using a previously established method.[20],[28] Cells were plated in 96-well plates and treated with test compounds (6.25–200 μM) and doxorubicin (DXR) at 10 μM as a positive control for 72 h. Cell viability was determined using an MTT solution, and absorbance was measured at 595 nm using a microplate spectrophotometer. The assay was performed in triplicate, and the results are expressed as a percentage of the control.
(§3) Statistical analysis was conducted using GraphPad Prism 8.0. CE50 and CC50 values were determined from sigmoid dose–response curves. Selectivity indices were calculated by dividing CC50 values obtained on Vero cells by CC50 values determined on S. mansoni.[30]

[1] = Cytotoxicity on Vero cells (MTT); assay type: cell-based; settings: chlorocebus sabaeus; Vero cells, 72 h, MTT, 6.25–200 μM tested; read-out: Vero cell CC50
Protocol: as §1, §2, §3

Caenorhabditis elegans = test: Toxicity assay with C. elegans (viability by mobility and form); assay type: in vivo, Caenorhabditis elegans (strain N2); settings: L4-stage worms, 24 h, 25 to 200 μM
Protocol: as §1
Toxicity assays with C. elegans were performed as previously described.[29] For 24 h, 26 L4-stage worms were exposed to samples at concentrations ranging from 25 to 200 μM, including levamisole (LVZ) at 10 μM as the positive control. Viability was assessed based on mobility and form using an inverted microscope, with experiments repeated three times.

[2] = adult female worms, in vitro, 72 h, 0.78–50 μM tested, read-out: S. mansoni female EC50
[3] = adult male worms, in vitro, 72 h, 0.78–50 μM tested, read-out: S. mansoni male EC50
[4] = adult schistosomes, ex vivo / in vitro, read-out: EC50 against S. mansoni (sex not specified)

EC50 (Schistosoma mansoni; [2]) [µM] | EC50 (Schistosoma mansoni; [3]) [µM] | EC50 (Schistosoma mansoni; [4]) [µM] | Structure (SMILES) | SI (male worms), selectivity index SI = CC50/EC50 (Vero cells) | CC50 at 72 h [1] [µM] | Antiparasitic activity against S. mansoni (in words) (Schistosoma mansoni; adult schistosomes, in vitro, up to 50 μM) | Toxicity to C. elegans (in words) (Caenorhabditis elegans) | SI (female worms), selectivity index SI = CC50/EC50 (Vero cells; Vero CC50 / S. mansoni female EC50) | Toxicity to mammalian cells (in words) (Vero cells; Vero cells, 72 h)
1.2 ± 0.1 | 0.9 ± 0.1 | < 2 | O=C(C1CCCCC1)N1CC(=O)N2CCc3ccccc3C2C1 (centres unmarked) [PZQ, Praziquantel, reference compound] | >250 | > 200 | – | – | – | –
> 50 | > 50 | > 50 | CC1(C)CCC(=O)[C@@]23C(=O)OC4OCC(=CC[C@@H]12)[C@H]43 (some centres unmarked) [Compound 5, marasmeno-1,15-dione] | – | – | no antiparasitic activity was detected | – | – | –
32.6 ± 5.1 | 8.3 ± 2.4 | < 10 | CCCCCCCC/C=C\[C@@H](O)[C@H](O)CCCCCC(=O)O (stereo in doubt) [Compound 3, (7R,8R,9Z)-7,8-dihydroxyoctadec-9-enoic acid] | >24.09 | > 200 | – | did not show toxicity; also recorded: no toxicity | >6.13 | no toxicity
> 50 | > 50 | > 50 | CCCCCC(=O)/C=C/C=C/[C@H](O)[C@@H](O)CCCCCC(=O)O [Compound 2, (7S,8S,9E,11E)-7,8-dihydroxy-13-oxo-octadeca-9,11-dienoic acid] | – | – | – | – | – | –
> 50 | > 50 | > 50 | O=C(O)/C=C/CCCCCCC(=O)O [Compound 4, (2E)-dec-2-ene-1,10-dioic acid] | – | – | – | – | – | –
> 50 | > 50 | > 50 | CCCCC[C@H](O)[C@@H](O)/C=C/C=C/C(=O)CCCCCC(=O)O [Compound 1, (8E,10E,12S,13S)-12,13-dihydroxy-7-oxo-octadeca-8,10-dienoic acid] | – | – | – | – | – | –
